Read-outs that look alike come from different tables or passages of the source.
Key:
[1] = system: IL-2 stimulated pSTAT5 in Tall-1 T cells; assay: Cellular JAK3 potency assay: inhibition of IL-2 stimulated pSTAT5 in Tall-1 T cells; assay type: cell-based, human; settings: for IC50: Homo sapiens, read-out: Tall-1 (pIC50) (converted)
Method: The potency of test compounds for inhibition of interleukin-2 (IL-2) stimulated STAT5 phosphorylation was measured in the Tall-1 human T cell line (DSMZ) using AlphaLisa. Because IL-2 signals through JAK3, this assay provides a measure of JAK3 cellular potency.
Compounds were serially diluted in DMSO and dispensed acoustically to empty wells. Assay media (phenol red-free DMEM (Life Technologies) supplemented with 10% FBS (ATCC)) was dispensed (4 μL/well) and plates shaken at 900 rpm for 10 mins. Cells were seeded at 45,000 cells/well in assay media (4 μL/well), and incubated at 37° C., 5% CO2 for 1 hour, followed by the addition of IL-2 (R&D Systems; final concentration 300 ng/ml) in pre-warmed assay media (4 μL) for 30 minutes. After cytokine stimulation, cells were lysed with 6 ul of 3× AlphaLisa Lysis Buffer (PerkinElmer) containing 1× PhosStop and Complete tablets (Roche). The lysate was shaken at 900 rpm for 10 minutes at room temperature (RT). Phosphorylated STAT5 was measured via the pSTAT5 AlphaLisa kit (PerkinElmer). Freshly prepared acceptor bead mixture was dispensed onto lysate (5 μL) under green filtered <100 lux light. Plates were shaken at 900 rpm for 2 mins, briefly spun down, and incubated for 2 hrs at RT in the dark. Donor beads were dispensed (5 μL) under green filtered <100 lux light. Plates were shaken at 900 rpm for 2 minutes, briefly spun down, and incubated overnight at RT in the dark.
To determine the inhibitory potency of test compounds in response to IL-2, the average emission intensity of beads bound to pSTAT5 was measured in a human T cell line. IC50 values were determined from analysis of the inhibition curves of signal intensity versus compound concentration. Data are expressed as pIC50 (negative decadic logarithm IC50) values (mean±standard deviation).

JAK1 = molecular target: T1, JAK1 (Homo sapiens, UniProt P23458); assay: Biochemical JAK1 kinase assay (LanthaScreen); settings: for Ki: read-out: JAK 1 (pKi) (converted)
T1 construct: GST; purchased Life Technologies
T1 sequence (P23458 whole entry): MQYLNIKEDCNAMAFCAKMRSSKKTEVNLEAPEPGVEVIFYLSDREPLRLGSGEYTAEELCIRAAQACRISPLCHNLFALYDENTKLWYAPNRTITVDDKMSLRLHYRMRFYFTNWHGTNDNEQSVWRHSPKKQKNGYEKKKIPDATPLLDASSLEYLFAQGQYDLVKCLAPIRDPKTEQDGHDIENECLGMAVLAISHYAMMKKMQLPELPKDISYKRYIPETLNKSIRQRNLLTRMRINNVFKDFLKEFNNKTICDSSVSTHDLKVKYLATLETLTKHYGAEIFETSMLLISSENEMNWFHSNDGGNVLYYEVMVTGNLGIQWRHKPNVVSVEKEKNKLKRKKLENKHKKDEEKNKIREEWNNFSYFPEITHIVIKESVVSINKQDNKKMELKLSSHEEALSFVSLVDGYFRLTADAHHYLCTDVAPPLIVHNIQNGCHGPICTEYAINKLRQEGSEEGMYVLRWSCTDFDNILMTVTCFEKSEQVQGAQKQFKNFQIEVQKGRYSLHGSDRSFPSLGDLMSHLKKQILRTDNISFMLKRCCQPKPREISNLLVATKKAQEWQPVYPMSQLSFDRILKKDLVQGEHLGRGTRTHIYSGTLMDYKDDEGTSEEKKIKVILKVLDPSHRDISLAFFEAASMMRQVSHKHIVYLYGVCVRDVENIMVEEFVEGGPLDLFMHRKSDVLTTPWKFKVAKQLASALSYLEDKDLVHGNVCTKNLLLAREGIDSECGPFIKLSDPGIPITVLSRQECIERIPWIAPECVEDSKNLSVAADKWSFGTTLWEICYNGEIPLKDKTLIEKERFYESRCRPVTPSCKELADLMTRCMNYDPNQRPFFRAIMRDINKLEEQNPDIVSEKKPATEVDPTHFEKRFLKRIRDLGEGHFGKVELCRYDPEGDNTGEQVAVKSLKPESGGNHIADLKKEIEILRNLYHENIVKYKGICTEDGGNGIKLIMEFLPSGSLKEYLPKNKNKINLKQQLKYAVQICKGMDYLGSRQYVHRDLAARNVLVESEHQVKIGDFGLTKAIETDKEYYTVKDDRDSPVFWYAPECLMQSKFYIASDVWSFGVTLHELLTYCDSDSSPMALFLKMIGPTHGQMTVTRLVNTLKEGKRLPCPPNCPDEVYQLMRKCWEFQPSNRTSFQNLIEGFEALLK
Method: (§1) A panel of four LanthaScreen JAK biochemical assays (JAK1, 2, 3 and Tyk2) were carried in a common kinase reaction buffer (50 mM HEPES, pH 7.5, 0.01% Brij-35, 10 mM MgCl2, and 1 mM EGTA). Recombinant GST-tagged JAK enzymes and a GFP-tagged STAT1 peptide substrate were obtained from Life Technologies.
(§2) Serially or discretely diluted compounds were pre-incubated with each of the four JAK enzymes and the substrate in white 384-well microplates (Corning) at ambient temperature for 1 h. ATP was subsequently added to initiate the kinase reactions in 10 μL total volume, with 1% DMSO. […] Kinase reactions were allowed to proceed for 1 hour at ambient temperature before a 10 μL preparation of EDTA (10 mM final concentration) and Tb-anti-pSTAT1 (pTyr701) antibody (Life Technologies, 2 nM final concentration) in TR-FRET dilution buffer (Life Technologies) was added. The plates were allowed to incubate at ambient temperature for 1 h before being read on the EnVision reader (Perkin Elmer). Emission ratio signals (520 nm/495 nm) were recorded and utilized to calculate the percent inhibition values based on DMSO and background controls.
(§3) For dose-response analysis, percent inhibition data were plotted vs. compound concentrations, and IC50 values were determined from a 4-parameter robust fit model with the Prism software (GraphPad Software). Results were expressed as pIC50 (negative logarithm of IC50) and subsequently converted to pKi (negative logarithm of dissociation constant, Ki) using the Cheng-Prusoff equation.

JAK3 = molecular target: T2, JAK3 (Homo sapiens, UniProt P52333); assay: Biochemical JAK3 kinase assay (LanthaScreen); parameters: GST; purchased Life Technologies; settings: for Ki: read-out: JAK 3 (pKi) (converted)
T2 sequence (P52333 1-1124): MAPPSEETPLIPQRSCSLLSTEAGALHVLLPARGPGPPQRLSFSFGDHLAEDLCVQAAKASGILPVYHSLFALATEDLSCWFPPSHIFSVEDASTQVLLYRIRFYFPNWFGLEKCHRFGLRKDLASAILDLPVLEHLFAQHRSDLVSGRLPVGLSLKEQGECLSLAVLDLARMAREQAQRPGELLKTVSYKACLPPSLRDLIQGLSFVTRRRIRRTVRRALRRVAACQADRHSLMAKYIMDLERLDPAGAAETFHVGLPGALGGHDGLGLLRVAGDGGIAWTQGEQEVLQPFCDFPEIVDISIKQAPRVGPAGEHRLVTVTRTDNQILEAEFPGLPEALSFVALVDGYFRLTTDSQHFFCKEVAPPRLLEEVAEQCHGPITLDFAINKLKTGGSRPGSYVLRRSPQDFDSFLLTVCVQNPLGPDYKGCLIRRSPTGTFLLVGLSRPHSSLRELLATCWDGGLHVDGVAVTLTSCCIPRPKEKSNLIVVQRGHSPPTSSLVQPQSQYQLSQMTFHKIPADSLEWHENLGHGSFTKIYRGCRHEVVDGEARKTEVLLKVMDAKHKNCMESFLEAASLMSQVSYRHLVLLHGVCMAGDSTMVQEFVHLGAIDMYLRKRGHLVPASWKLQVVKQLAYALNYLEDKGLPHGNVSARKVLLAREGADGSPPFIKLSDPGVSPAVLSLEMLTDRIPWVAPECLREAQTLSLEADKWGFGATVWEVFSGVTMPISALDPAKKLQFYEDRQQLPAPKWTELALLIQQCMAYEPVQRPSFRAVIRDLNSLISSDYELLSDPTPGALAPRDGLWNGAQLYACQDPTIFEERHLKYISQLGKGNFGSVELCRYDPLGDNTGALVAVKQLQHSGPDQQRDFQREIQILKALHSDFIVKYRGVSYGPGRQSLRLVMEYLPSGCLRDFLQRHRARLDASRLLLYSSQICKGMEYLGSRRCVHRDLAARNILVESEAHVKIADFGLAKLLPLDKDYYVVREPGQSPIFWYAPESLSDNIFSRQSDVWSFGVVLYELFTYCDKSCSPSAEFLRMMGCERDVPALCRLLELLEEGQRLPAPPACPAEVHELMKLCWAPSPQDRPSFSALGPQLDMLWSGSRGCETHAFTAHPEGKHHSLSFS
Method: as §1, §2, §3

[2] = IL-2 stimulated pSTAT5 in Tall-1 T cells
[3] = selectivity: difference of pKi JAK3 and pKi JAK1
[4] = TALL-1, IL-2 stimulated pSTAT5, Tall-1 T cells
[5] = selectivity JAK3 over JAK1, difference of pKi
[6] = IL-2 stimulated pSTAT5, Tall-1 T cells

Structure (SMILES)	Tall-1 (pIC50) [1, 2]	JAK 1 (pKi) (JAK1)	JAK 3 (pKi) (JAK3)	JAK3 (pKi)-JAK1 (pKi) (JAK3; [3])	IC50 [1, 4]	Ki (JAK1)	Ki (JAK3)	JAK3 (pKi)-JAK1 (pKi) (JAK3; [5])	Tall-1 (pIC50) [1, 6]	IC50 ([1]; TALL-1, IL-2 stimulated pSTAT5 in Tall-1 T cells)
C=CC(=O)N1CC[C@H](COc2nc(-c3ccc(O)c(Cl)c3)cc3[nH]ncc23)C1 [Compound 2-14]	A (a pIC50 value≥7.5 (IC50≤32 nM))	E (a pKi value of 7 or below (Ki of 100 nM or above))	A (a pKi value≥10 (Ki≤0.1 nM))	A (a value of 3 or above)						
C=CC(=O)N1CCC(Oc2nc(-c3ccc(O)cc3)nc3[nH]ncc23)CC1 [Compound 6-12]					31.6 to 200 nM	> 100 nM	0.1 to 1 nM	A (a value of 3 or above)		
C=CC(=O)N1CC[C@H](COc2nc(-c3ccc(O)cc3)nc3[nH]ncc23)C1 [Compound 2-7]	B (a pIC50 value between 6.7 (included) and 7.5 (IC50 between 200 nM and 32 nM))	E (a pKi value of 7 or below (Ki of 100 nM or above))	B (a pKi value between 9 and 10 (Ki between 1 nM and 0.1 nM))	A (a value of 3 or above)						
CN(C)C/C=C/C(=O)N1CC2(CC(Oc3cc(-c4ccc(O)cc4)cc4[nH]ncc34)C2)C1 [Compound 12-52]					200 to 1000 nM	10 to 100 nM	0.1 to 1 nM	B (a value of 2.3 to 3)		
CN(C)C/C=C/C(=O)N1CCC(COc2cc(-c3ccc(O)c(Cl)c3)cc3[nH]ncc23)CC1 [Compound 14-3]		E (a pKi value of 7 or below (Ki of 100 nM or above))	B (a pKi value between 9 and 10 (Ki between 1 nM and 0.1 nM))					B (a value of 2.3 to 3)	B (a pIC50 value between 6.7 (included) and 7.5 (IC50 between 200 nM and 32 nM))	
C=CC(=O)N1CCC(C)(Oc2cc(-c3ccc(O)c(Cl)c3)cc3[nH]ncc23)CC1 [Compound 6-5]		E (a pKi value of 7 or below (Ki of 100 nM or above))	B (a pKi value between 9 and 10 (Ki between 1 nM and 0.1 nM))					A (a value of 3 or above)	A (a pIC50 value≥7.5 (IC50≤32 nM))	
CN(C)C/C=C/C(=O)N1CC[C@H](COc2cc(-c3ccc(O)c(F)c3)cc3[nH]ncc23)C1 [Compound 2-4]	C (a pIC50 value between 6 and 6.7 (IC50 between 1 μM and 200 nM))	E (a pKi value of 7 or below (Ki of 100 nM or above))	B (a pKi value between 9 and 10 (Ki between 1 nM and 0.1 nM))	B (a value of 2.3 to 3)						
C=CC(=O)N1CC[C@H](Oc2cc(-c3cc(F)c(O)c(F)c3)cc3[nH]ncc23)C1 [Compound 1-14]				A (a value of 3 or above)		> 100 nM	< 0.1 nM			31.6 to 200 nM
C=CC(=O)N1C[C@H](C(=O)Nc2cc(-c3ccc(O)cc3)cc3[nH]ncc23)OC(C)(C)C1 [Compound 12-62]					31.6 to 200 nM	> 100 nM	< 0.1 nM	A (a value of 3 or above)		
CN(C)C/C=C/C(=O)N1CC(N(C)c2cc(-c3ccc(O)cc3)cc3[nH]ncc23)C1 [Compound 5-8]	C (a pIC50 value between 6 and 6.7 (IC50 between 1 μM and 200 nM))	E (a pKi value of 7 or below (Ki of 100 nM or above))	B (a pKi value between 9 and 10 (Ki between 1 nM and 0.1 nM))	A (a value of 3 or above)						
CN(C)C/C=C/C(=O)N1CCC(C)(Oc2cc(-c3ccc(O)cc3)cc3[nH]ncc23)CC1 [Compound 6-9]					31.6 to 200 nM			A (a value of 3 or above)		
